In data set [1] the test system is Rattus norvegicus. In words: Anti-inflammatory activity in Rattus norvegicus Wistar albino (rat) assessed as inhibition of carrageenan-induced paw edema at 20 mg/kg, po administered 30 min before carrageenan challenge measured after 0.5 hr relative to control. The data set is classed as functional. (The carrageenan paw model is a standard test of acute inflammation.)

Data set [2] relates to Radical scavenging activity. In words: Antioxidant activity assessed as DPPH free radical scavenging activity at 100 ug/ml after 30 min. The data set is classed as functional.
In data set [3] the test system is Mus musculus. Briefly: Analgesic activity in po dosed Mus musculus Swiss albino (mouse) assessed as increase in reaction time after 1.5 hr by tail-flick method relative to control. It counts as functional. (In general: In hot-plate and tail-flick tests a longer latency is read as antinociception.)
For data set [4], the system named is Mus musculus. Briefly: Analgesic activity in po dosed Mus musculus Swiss albino (mouse) assessed as increase in reaction time after 1 hr by tail-flick method relative to control. It counts as functional.
Data set [5] deals with Mus musculus. Briefly: Analgesic activity in po dosed Mus musculus Swiss albino (mouse) assessed as increase in reaction time after 0.5 hr by tail-flick method relative to control. It counts as functional.
Data set [6] concerns Rattus norvegicus. Briefly: Anti-inflammatory activity in Rattus norvegicus Wistar albino (rat) assessed as inhibition of carrageenan-induced paw edema at 20 mg/kg, po administered 30 min before carrageenan challenge measured after 3 hr relative to control. It counts as functional.
The subject of data set [7] is Rattus norvegicus. In words: Anti-inflammatory activity in Rattus norvegicus Wistar albino (rat) assessed as inhibition of carrageenan-induced paw edema at 20 mg/kg, po administered 30 min before carrageenan challenge measured after 2.5 hr relative to control. The data set is classed as functional.
In data set [8] the test system is Rattus norvegicus. In words: Anti-inflammatory activity in Rattus norvegicus Wistar albino (rat) assessed as inhibition of carrageenan-induced paw edema at 20 mg/kg, po administered 30 min before carrageenan challenge measured after 2 hr relative to control. It counts as functional.
In data set [9] the test system is Rattus norvegicus. In words: Anti-inflammatory activity in Rattus norvegicus Wistar albino (rat) assessed as inhibition of carrageenan-induced paw edema at 20 mg/kg, po administered 30 min before carrageenan challenge measured after 1.5 hr relative to control. It counts as functional.
Data set [10] deals with Rattus norvegicus. In words: Anti-inflammatory activity in Rattus norvegicus Wistar albino (rat) assessed as inhibition of carrageenan-induced paw edema at 20 mg/kg, po administered 30 min before carrageenan challenge measured after 1 hr relative to control. The data set is classed as functional.
The nature of data set [11]: Antioxidant activity assessed as nitric oxide radical scavenging activity at 40 ug/ml after 150 min by Griess Illosvoy reaction. It counts as functional.
Data set [12] can be described thus: Antioxidant activity assessed as nitric oxide radical scavenging activity at 20 ug/ml after 150 min by Griess Illosvoy reaction. The data set is classed as functional.
Data set [13] can be described thus: Antioxidant activity assessed as superoxide radical scavenging activity at 100 ug/ml after 5 min by NBT reduction assay. The data set is classed as functional.
Data set [14] can be described thus: Antioxidant activity assessed as superoxide radical scavenging activity at 80 ug/ml after 5 min by NBT reduction assay. It counts as functional.
Data set [15] can be described thus: Antioxidant activity assessed as superoxide radical scavenging activity at 60 ug/ml after 5 min by NBT reduction assay. The data set is classed as functional.
Data set [16] can be described thus: Antioxidant activity assessed as superoxide radical scavenging activity at 40 ug/ml after 5 min by NBT reduction assay. The data set is classed as functional.
Data set [17] can be described thus: Antioxidant activity assessed as superoxide radical scavenging activity at 20 ug/ml after 5 min by NBT reduction assay. The data set is classed as functional.
Data set [18] in a line: Antioxidant activity assessed as hydroxyl radical scavenging activity at 80 ug/ml after 4 hr. It counts as functional.
Data set [19] in a line: Antioxidant activity assessed as hydroxyl radical scavenging activity at 100 ug/ml after 4 hr. The data set is classed as functional.
Data set [20] can be described thus: Antioxidant activity assessed as hydroxyl radical scavenging activity at 60 ug/ml after 4 hr. The data set is classed as functional.
Data set [21] can be described thus: Antioxidant activity assessed as hydroxyl radical scavenging activity at 40 ug/ml after 4 hr. The data set is classed as functional.
Data set [22] in a line: Antioxidant activity assessed as hydroxyl radical scavenging activity at 20 ug/ml after 4 hr. It counts as functional.
For the next data set, the system named is Staphylococcus aureus. In words: Antibacterial activity against Staphylococcus aureus by well diffusion method. The data set is classed as functional, organism-based. On the technique in general: A growth-free zone around the sample is the usual read-out of agar diffusion tests.
A further data set deals with Aspergillus. Briefly: Antifungal activity against Aspergillus by well diffusion method. It counts as functional, organism-based.
In another data set the test system is Escherichia coli. Briefly: Antibacterial activity against Escherichia coli by well diffusion method. It counts as functional, organism-based.
The test system of data set [23] is Rattus norvegicus. Briefly: Ulcerogenic activity in Rattus norvegicus Wistar albino (rat) assessed as ulcer index at equimolar dose of relative to 200 mg/kg of ibuprofen, po after 17 hr. The data set is classed as toxicity, organism-based. Details: dose 200 mg/kg, route oral. As to conditions: in vivo.
A short description of data set [24]: Antioxidant activity assessed as nitric oxide radical scavenging activity at 100 ug/ml after 150 min by Griess Illosvoy reaction. The data set is classed as functional.
A short description of data set [25]: Antioxidant activity assessed as nitric oxide radical scavenging activity at 80 ug/ml after 150 min by Griess Illosvoy reaction. It counts as functional.
The nature of data set [26]: Antioxidant activity assessed as nitric oxide radical scavenging activity at 60 ug/ml after 150 min by Griess Illosvoy reaction. It counts as functional.
The subject of data set [27] is Mus musculus. In words: Analgesic activity in Mus musculus Swiss albino (mouse) assessed as increase in reaction time at 10 mg/kg, po after 0.5 hr by tail-flick method relative to control. It counts as functional.
Data set [28] deals with Mus musculus. In words: Analgesic activity in Mus musculus Swiss albino (mouse) assessed as increase in reaction time at 10 mg/kg, po after 1.5 hr by tail-flick method relative to control. It counts as functional.
The subject of data set [29] is Mus musculus. Briefly: Analgesic activity in Mus musculus Swiss albino (mouse) assessed as increase in reaction time at 10 mg/kg, po after 1 hr by tail-flick method relative to control. The data set is classed as functional.
In data set [30] the test system is Rattus norvegicus. Briefly: Ulcerogenic activity in Rattus norvegicus Wistar albino (rat) assessed as ulcer index at 200 mg/kg, po after 17 hr. The data set is classed as toxicity, organism-based. Details: dose 200 mg/kg, route oral. The following applies: in vivo.

The values below come from ChEMBL document CHEMBL3044588, “Microwave-mediated synthesis of triazolothiadiazoles as anti-inflammatory, analgesic, and anti-oxidant agents” (Med Chem Res, 2012).

The term inhibition in vivo denotes the share of the control response that was lost under treatment. One may read the inhibition as the change of the read-out against control, counted positive when it falls.

Active and inactive are the calls of the source. The calls are words filed in the database; no cut-off is given here.

As for `CC(C)Cc1ccc(C(C)c2nnc3sc(-c4ccccc4Cl)nn23)cc1` (stereo not drawn), the inhibition in vivo at 20 mg/kg in the data set with Rattus norvegicus [1] stood at 64%; in the data set on Rattus norvegicus [6], 59%; in the data set with Rattus norvegicus [7], 58%; in the data set on Rattus norvegicus [8], 59%; in the data set on Rattus norvegicus [9], 57%; in the data set with Rattus norvegicus [10] it was 43%. Besides, the inhibition in data set [2] worked out at 4.46%. Besides, the figures for the Activity in the data set on Mus musculus [3], with Mus musculus [4] and in the data set with Mus musculus [5] were 78.2%, 39.74% and 19.23%, respectively.

For the molecule `CCCc1nn2c(C(C)c3ccc(CC(C)C)cc3)nnc2s1` (stereo not drawn), the inhibition in vivo at 20 mg/kg was 10% in the data set with Rattus norvegicus [1]; 34% in the data set with Rattus norvegicus [6]; 31% in the data set on Rattus norvegicus [7]; 28% in the data set on Rattus norvegicus [8]; 24% with Rattus norvegicus [9]; 15% in the data set on Rattus norvegicus [10]. The inhibition in [11] is 26.7%; in data set [12] it was 14.3%; in data set [13], 58.6%; in [14], 53%; in data set [15], 42.4%; in data set [16], 36.4%. Moreover, the inhibition in data set [17] is 24.5%; in data set [18], 56.4%; in data set [19], 62.4%; in data set [20], 44.2%; in data set [21], 38.7%; in data set [22], 26.1%. Besides, the inhibition in data set [2] turned out to be 77.9%; in data set [24], 52.6%; in [25] it was 46.7%; in data set [26], 38.3%. For the same molecule, the result in the data set on Staphylococcus aureus, with Aspergillus and in the data set on Escherichia coli was inactive. Also, in the data set on Rattus norvegicus [23], the UI stood at 8.54.

For the molecule `Cc1cc(C(C)(C)C)c(O)c(C(C)(C)C)c1`, the inhibition in data set [13] came to 72.5%; in data set [19], 68.3%; in data set [2], 84.8%; in data set [24], 62.2%.

Turning to `CC(C)Cc1ccc(C(C)c2nnc3sc(-c4ccc([N+](=O)[O-])cc4Cl)nn23)cc1` (stereo not drawn), the inhibition in data set [2] stood at 1.71%. The Activity in the data set with Mus musculus [3] was 41.61%; in the data set with Mus musculus [4], 31.79%; in the data set on Mus musculus [5], 17.34%. For the same molecule, the inhibition in vivo at 20 mg/kg in the data set on Rattus norvegicus [6] is 69%; in the data set on Rattus norvegicus [7] it was 67%; with Rattus norvegicus [8], 67%; with Rattus norvegicus [9], 59%; in the data set on Rattus norvegicus [10] it was 4%.

Take `O=C(O)Cc1ccccc1Nc1c(Cl)cccc1Cl` [DICLOFENAC]: the inhibition in vivo at 20 mg/kg in the data set with Rattus norvegicus [1] turned out to be 82%; with Rattus norvegicus [6] it was 75%; in the data set on Rattus norvegicus [7] it was 73%; in the data set with Rattus norvegicus [8] it was 76%; with Rattus norvegicus [9] it was 80%; in the data set with Rattus norvegicus [10] it was 65%.

As for `CC(C)=CCN1CC[C@@]2(C)c3cc(O)ccc3C[C@@H]1[C@@H]2C` (racemic), the Activity amounted to 20.44% in the data set on Mus musculus [27], 77.34% in the data set on Mus musculus [28] and 40.33% in the data set on Mus musculus [29].

For `Cc1nn2c(C(C)c3ccc(CC(C)C)cc3)nnc2s1` (stereo not drawn), the inhibition in vivo at 20 mg/kg in the data set with Rattus norvegicus [1] turned out to be 64%; in the data set with Rattus norvegicus [6] it was 62%; in the data set on Rattus norvegicus [7], 56%; in the data set on Rattus norvegicus [8], 58%; in the data set on Rattus norvegicus [9], 62%; in the data set with Rattus norvegicus [10], 43%. Further, the inhibition in data set [2] stood at 7.9%. Moreover, the values for the Activity in the data set on Mus musculus [3], with Mus musculus [4] and in the data set on Mus musculus [5] were 42.66%, 32% and 26.66%, respectively.

As to `CC(C)Cc1ccc(C(C)C(=O)O)cc1` (stereo not drawn) [IBUPROFEN], the inhibition in vivo at 20 mg/kg in the data set with Rattus norvegicus [1] is 20%; in the data set on Rattus norvegicus [6], 42%; in the data set on Rattus norvegicus [7] it was 39%; with Rattus norvegicus [8] it was 36%; in the data set on Rattus norvegicus [9], 25%; in the data set with Rattus norvegicus [10], 18%. The values for the Activity in the data set on Mus musculus [27], in the data set with Mus musculus [28] and with Mus musculus [29] were 11.73%, 30.04% and 22.53%, respectively. Further, in the data set with Rattus norvegicus [30], the UI was 29.37.

With `CCc1nn2c(C(C)c3ccc(CC(C)C)cc3)nnc2s1` (stereo not drawn), the inhibition in vivo at 20 mg/kg amounted to 5% in the data set on Rattus norvegicus [1]; 55% with Rattus norvegicus [6]; 44% in the data set on Rattus norvegicus [7]; 45% in the data set on Rattus norvegicus [8]; 49% in the data set on Rattus norvegicus [9]; 22% in the data set on Rattus norvegicus [10]. Further, the inhibition in data set [2] came to 5.61%. In addition, the Activity with Mus musculus [3] stood at 30.06%; with Mus musculus [4], 16.33%; in the data set on Mus musculus [5], 7.18%.
